This assay concerns CD2F1 mice, L1210 leukemia ip, survival T/C. Put plainly: NCI In Vivo Anticancer Drug Screen. Data for tumor model L1210 Leukemia (intraperitoneal) in CD2F1 (CDF1) mice. Particulars: higher = longer survival. The procedure: The antitumor activity of compounds was measured in mice bearing transplantable tumors. Survival or tumor size were measured and the results are expressed as the measurement made in the treated group (T) divided by the measurement made in the vehicle treated control group (C). The tumor model used in this assay is L1210 Leukemia (intraperitoneal) in CD2F1 (CDF1) mice

Where [1] appears, read: endpoint: mean survival time, dose: 200.0 mg/kg/injection, schedule: Q01DX009 (ip), vehicle: saline with Tween-80.
The mark [2] stands for this setting: endpoint: mean survival time, dose: 100.0 mg/kg/injection, schedule: Q04DX003 (ip), vehicle: saline with Tween-80.
The mark [3] stands for this setting: endpoint: mean survival time, dose: 200.0 mg/kg/injection, schedule: Q04DX003 (ip), vehicle: saline with Tween-80.
[4] abbreviates: endpoint: mean survival time, dose: 400.0 mg/kg/injection, schedule: Q04DX003 (ip), vehicle: saline with Tween-80.
[5] abbreviates: endpoint: mean survival time, dose: 100.0 mg/kg/injection, schedule: Q01DX001 (ip), vehicle: saline with Tween-80.
The mark [6] stands for this setting: endpoint: mean survival time, dose: 100.0 mg/kg/injection, schedule: Q01DX009 (ip), vehicle: saline with Tween-80.
Where [7] appears, read: endpoint: mean survival time, dose: 200.0 mg/kg/injection, schedule: Q01DX001 (ip), vehicle: saline with Tween-80.
Where [8] appears, read: endpoint: mean survival time, dose: 400.0 mg/kg/injection, schedule: Q01DX001 (ip), vehicle: saline with Tween-80.
[9] abbreviates: endpoint: mean survival time, dose: 400.0 mg/kg/injection, schedule: Q01DX009 (ip), vehicle: saline with Tween-80.
[10] abbreviates: endpoint: mean survival time, dose: 100.0 mg/kg/injection, schedule: Q04DX003 (ip), vehicle: saline.

The structures appear in SMILES notation. Several values for one entry are separate records, joined by “and”; a condition that tells them apart may be missing. Identical values can stand only once. Toxic doses and inconclusive results are not listed.

As for `Nc1nc(F)nc2c1ncn2C1OC(COC=O)C(OC=O)C1O` (stereo unspecified) (tested in a mixture with another compound), the T/C was 205 % of control (endpoint: mean survival time, dose: 100.0 mg/kg/injection, schedule: Q01DX009 (ip), vehicle: saline); 243 % of control and 419 % of control (endpoint: mean survival time, dose: 125.0 mg/kg/injection, schedule: Q01DX009 (ip), vehicle: saline); 512 % of control (endpoint: mean survival time, dose: 150.0 mg/kg/injection, schedule: Q01DX009 (ip), vehicle: saline with Tween-80); 288 % of control and 370 % of control (endpoint: mean survival time, dose: 150.0 mg/kg/injection, schedule: Q01DX009 (ip), vehicle: saline); 163 % of control (endpoint: mean survival time, dose: 175.0 mg/kg/injection, schedule: Q01DX005 (ip), vehicle: saline with Tween-80); 551 % of control (endpoint: mean survival time, dose: 175.0 mg/kg/injection, schedule: Q01DX009 (ip), vehicle: saline with Tween-80). Besides, the T/C was 318 % of control (endpoint: mean survival time, dose: 175.0 mg/kg/injection, schedule: Q01DX009 (ip), vehicle: saline); 179 % of control (endpoint: mean survival time, dose: 200.0 mg/kg/injection, schedule: Q01DX005 (ip), vehicle: saline with Tween-80); 298 % of control under setting [1]; 189 % of control (endpoint: mean survival time, dose: 250.0 mg/kg/injection, schedule: Q01DX009 (ip), vehicle: saline with Tween-80).

As to `C[N+](C)(C)CC(=O)N/N=C\c1c(O)ccc2ccccc12`, under setting [2], the T/C was 97 % of control.

For the molecule `CCCCCC(CN(C)C)C(=O)/C=C/c1c(Cl)cccc1Cl` (stereo unspecified), the T/C is, setting by setting: (endpoint: mean survival time, dose: 6.25 mg/kg/injection, schedule: Q01DX009 (ip), vehicle: other) 101 % of control; (endpoint: mean survival time, dose: 12.5 mg/kg/injection, schedule: Q01DX009 (ip), vehicle: other) 101 % of control; (endpoint: mean survival time, dose: 25.0 mg/kg/injection, schedule: Q01DX009 (ip), vehicle: other) 104 % of control; (endpoint: mean survival time, dose: 100.0 mg/kg/injection, schedule: Q01DX001 (ip), vehicle: Klucel (hydroxypropylcellulose) (HPC)) 94 % of control.

As to `COC(=O)CC1CCS(=O)(=O)C1` (stereo unspecified), the T/C by setting is: under setting [2], 98 % of control; under setting [3], 93 % of control; under setting [4], 92 % of control.

Turning to `O=C(O)/C=C/C(=O)Nc1ccc(C(=O)O)cc1`, the T/C is, setting by setting: under setting [5], 94 % of control; under setting [6], 91 % of control; under setting [7], 92 % of control; under setting [1], 96 % of control; under setting [8], 92 % of control; under setting [9], 89 % of control.

On to `O=S(=O)(Cc1ccccc1)Cc1ccccc1`, for which the T/C is 101 % of control under setting [6]; 103 % of control under setting [2]; 98 % of control under setting [1]; 103 % of control under setting [3]; 96 % of control under setting [9]; 102 % of control under setting [4].

For the molecule `CO[C@@]12[C@@H]3N[C@@H]3CN1C1=C(C(=O)C(N3CCOCC3)=C(C)C1=O)[C@@H]2COC(N)=O`, the T/C reads like this: (endpoint: mean survival time, dose: 1.5 mg/kg/injection, schedule: Q01DX001 (ip), vehicle: distilled water + Tween-80) 118 % of control; (endpoint: mean survival time, dose: 3.0 mg/kg/injection, schedule: Q01DX001 (ip), vehicle: distilled water + Tween-80) 123 % of control; (endpoint: mean survival time, dose: 12.0 mg/kg/injection, schedule: Q01DX001 (ip), vehicle: distilled water + Tween-80) 115 % of control.

On to `O=C(O)c1ccc([N+](=O)[O-])cc1[N+](=O)[O-]`, for which the T/C under setting [5] is 87 % of control, the T/C under setting [7] is 97 % of control and the T/C under setting [8] was 91 % of control.

Take `Nc1nc([Se]c2nc(N)nc3c2ncn3C2OC(CO)C(O)C2O)c2ncn(C3OC(CO)C(O)C3O)c2n1` (stereo unspecified): the T/C was 156 % of control (endpoint: median survival time, dose: 36.0 mg/kg/injection, schedule: Q01DX005 (ip), vehicle: distilled water + Tween-80) and 162 % of control (endpoint: median survival time, dose: 60.0 mg/kg/injection, schedule: Q01DX005 (ip), vehicle: distilled water + Tween-80).

For the molecule `CN(C)c1ccc(-c2nnc(-c3ccc(N(C)C)cc3)nn2)cc1`, the T/C runs as follows: under setting [2], 93 % of control; under setting [3], 92 % of control; under setting [4], 95 % of control.

As for `CCNc1nc(Cl)nc(NC(C)C)n1`, the T/C reads like this: under setting [6], 93 % of control; under setting [10], 95 % of control; under setting [1], 98 % of control; (endpoint: mean survival time, dose: 200.0 mg/kg/injection, schedule: Q04DX003 (ip), vehicle: saline) 101 % of control; (endpoint: mean survival time, dose: 400.0 mg/kg/injection, schedule: Q04DX003 (ip), vehicle: saline) 92 % of control.

With `NC(=S)c1cccc2ccccc12`, the T/C (endpoint: mean survival time, dose: 100.0 mg/kg/injection, schedule: Q04DX002 (ip), vehicle: Klucel (hydroxypropylcellulose) (HPC)) is 105 % of control; the T/C (endpoint: mean survival time, dose: 200.0 mg/kg/injection, schedule: Q04DX002 (ip), vehicle: Klucel (hydroxypropylcellulose) (HPC)) was 98 % of control; the T/C (endpoint: mean survival time, dose: 400.0 mg/kg/injection, schedule: Q04DX002 (ip), vehicle: Klucel (hydroxypropylcellulose) (HPC)) is 110 % of control.

Consider `Nc1ccc(-c2ccccc2-c2ccccc2)cc1`, for which the T/C reads like this: (endpoint: mean survival time, dose: 100.0 mg/kg/injection, schedule: Q01DX009 (ip), vehicle: acetone) 101 % of control; (endpoint: mean survival time, dose: 200.0 mg/kg/injection, schedule: Q01DX009 (ip), vehicle: acetone) 105 % of control.

Take `C/C=C1/C=CC2c3[nH]c4ccccc4c3CCN2C1` (stereo unspecified): the T/C is 93 % of control (endpoint: mean survival time, dose: 20.0 mg/kg/injection, schedule: Q01DX001 (ip), vehicle: saline with Tween-80); 98 % of control (endpoint: mean survival time, dose: 40.0 mg/kg/injection, schedule: Q01DX001 (ip), vehicle: saline with Tween-80); 90 % of control (endpoint: mean survival time, dose: 80.0 mg/kg/injection, schedule: Q01DX001 (ip), vehicle: saline with Tween-80).

Consider `CC(NC(=O)OCc1ccccc1)C(=O)NCCC(=O)OCc1ccccc1` (stereo unspecified), for which the T/C runs as follows: under setting [6], 93 % of control; under setting [1], 95 % of control; under setting [9], 90 % of control.

Take `Cc1ccc(NS(=O)(=O)c2ccc([N+](=O)[O-])cc2)cc1`: the T/C is 93 % of control under setting [6], 98 % of control under setting [1] and 105 % of control under setting [9].

`[NH-]C(CO)C(=O)O.[NH-]C(CO)C(=O)O.[Pd+2]` (stereo unspecified): the T/C was 104 % of control (endpoint: mean survival time, dose: 3.13 mg/kg/injection, schedule: Q04DX003 (ip), vehicle: distilled water + Tween-80); 114 % of control (endpoint: mean survival time, dose: 3.13 mg/kg/injection, schedule: Q04DX003 (ip), vehicle: saline); 95 % of control (endpoint: mean survival time, dose: 3.13 mg/kg/injection, schedule: Q04DX003 (ip), vehicle: water); 96 % of control (endpoint: mean survival time, dose: 6.25 mg/kg/injection, schedule: Q04DX003 (ip), vehicle: distilled water + Tween-80); 94 % of control (endpoint: mean survival time, dose: 6.25 mg/kg/injection, schedule: Q04DX003 (ip), vehicle: saline); 95 % of control (endpoint: mean survival time, dose: 6.25 mg/kg/injection, schedule: Q04DX003 (ip), vehicle: water). Besides, the T/C is, setting by setting: (endpoint: mean survival time, dose: 12.5 mg/kg/injection, schedule: Q04DX003 (ip), vehicle: distilled water + Tween-80) 98 % of control; (endpoint: mean survival time, dose: 12.5 mg/kg/injection, schedule: Q04DX003 (ip), vehicle: saline) 102 % of control; (endpoint: mean survival time, dose: 12.5 mg/kg/injection, schedule: Q04DX003 (ip), vehicle: water) 97 % of control; (endpoint: mean survival time, dose: 25.0 mg/kg/injection, schedule: Q04DX003 (ip), vehicle: distilled water + Tween-80) 95 % of control; (endpoint: mean survival time, dose: 25.0 mg/kg/injection, schedule: Q04DX003 (ip), vehicle: saline) 103 % of control; (endpoint: mean survival time, dose: 25.0 mg/kg/injection, schedule: Q04DX003 (ip), vehicle: water) 96 % of control. The T/C reads like this: (endpoint: mean survival time, dose: 50.0 mg/kg/injection, schedule: Q04DX003 (ip), vehicle: distilled water + Tween-80) 98 % of control; (endpoint: mean survival time, dose: 50.0 mg/kg/injection, schedule: Q04DX003 (ip), vehicle: saline) 107 % of control; (endpoint: mean survival time, dose: 50.0 mg/kg/injection, schedule: Q04DX003 (ip), vehicle: water) 105 % of control; (endpoint: mean survival time, dose: 100.0 mg/kg/injection, schedule: Q04DX003 (ip), vehicle: distilled water + Tween-80) 102 % of control; under setting [10], 106 % of control; (endpoint: mean survival time, dose: 100.0 mg/kg/injection, schedule: Q04DX003 (ip), vehicle: water) 91 % of control.

With `CN(C)CN1C(=O)S/C(=C2\C(=O)N(CN(C)C)c3ccccc32)C1=O`, the T/C reads like this: (endpoint: median survival time, dose: 50.0 mg/kg/injection, schedule: Q01DX005 (ip), vehicle: Klucel (hydroxypropylcellulose) (HPC)) 100 % of control; (endpoint: median survival time, dose: 100.0 mg/kg/injection, schedule: Q01DX005 (ip), vehicle: Klucel (hydroxypropylcellulose) (HPC)) 98 % of control; (endpoint: median survival time, dose: 200.0 mg/kg/injection, schedule: Q01DX005 (ip), vehicle: Klucel (hydroxypropylcellulose) (HPC)) 101 % of control.

Source of the values: PubChem BioAssay AID256 (DTP/NCI, 2004).
